From US9096591B2, “Tetracyclic compounds” (Medivation Technologies, Inc., priority 2007, dated 2015)
Read-outs that look alike come from different tables or passages of the source.

Tests used:
[1] = target: T1, human recombinant histamine H1 receptor (Homo sapiens, UniProt P35367); assay: Histamine H1 radioligand binding ([3H]Pyrilamine)
T1 construct: expressed in transfected cells; host or cells: CHO cells
Procedure, shortened: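 CHO-expressed receptor in modified Tris-HCl buffer (50 mM, pH 7.4; 2 mM MgCl2, 100 mM NaCl, 250 mM sucrose); bound ligand measured after filtration and washing.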

[2] = target: T2, human recombinant adrenergic α2B receptor (Homo sapiens, UniProt P18089); assay: Adrenergic α2B radioligand binding ([3H]Rauwolscine); set-up: Inhibition of ligand binding, Adren. alpha2B: concentration or dose not given beside the values; conditions: for Inhibition of ligand binding, Adren. alpha2B: percent inhibition of specific binding; for inhibition at 1 µM: compounds screened at 1 μM, read-out: Inhibition of ligand binding, Adren. alpha2B (percent inhibition of specific binding)
T2 construct: expressed in transfected cells; host or cells: CHO-K1 cells
T2 sequence (P18089 1-450): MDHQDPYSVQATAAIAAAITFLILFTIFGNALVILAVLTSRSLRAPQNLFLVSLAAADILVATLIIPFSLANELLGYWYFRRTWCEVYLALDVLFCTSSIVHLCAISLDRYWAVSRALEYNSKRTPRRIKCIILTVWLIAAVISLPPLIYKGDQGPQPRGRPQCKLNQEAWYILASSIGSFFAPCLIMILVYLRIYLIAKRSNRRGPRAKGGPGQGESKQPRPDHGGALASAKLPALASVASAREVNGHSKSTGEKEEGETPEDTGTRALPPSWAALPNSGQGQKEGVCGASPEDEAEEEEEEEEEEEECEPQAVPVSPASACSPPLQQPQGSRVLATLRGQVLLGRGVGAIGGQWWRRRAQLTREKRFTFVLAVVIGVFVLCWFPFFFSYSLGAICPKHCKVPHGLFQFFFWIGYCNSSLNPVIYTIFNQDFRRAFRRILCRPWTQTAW
Procedure, shortened: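 Incubation ran 60 minutes at 25 °C in modified Tris-HCl buffer (50 mM, pH 7.4, 12.5 mM MgCl2, 1 mM EDTA, 0.2% BSA) using CHO-K1-expressed human receptor.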

[3] = target: T3, human recombinant dopamine D2L receptor (Homo sapiens, UniProt P14416); assay: Dopamine D2L radioligand binding ([3H]Spiperone); conditions: for Inhibition of ligand binding, Dop. D2L: percent inhibition of specific binding; for inhibition at 1 µM: compounds screened at 1 μM, read-out: Inhibition of ligand binding, Dop. D2L (percent inhibition of specific binding)
T3 construct: expressed in transfected cells; host or cells: CHO cells
Description: Non-specific binding was estimated in the presence of 10 μM Haloperidol. Receptor proteins were filtered and washed, the filters were then counted to determine [^3H]Spiperone specifically bound. […] Biochemical assay results are presented as the percent inhibition of specific binding in Table 6.

[4] = target: T4, human recombinant serotonin (5-Hydroxytryptamine) 5-HT2A receptor (Homo sapiens, UniProt P28223); assay: Serotonin 5-HT2A radioligand binding ([3H]Ketanserin); conditions: for Inhibition of ligand binding, Ser. 5-HT2A: percent inhibition of specific binding; for inhibition at 1 µM: read-out: Inhibition of ligand binding, Ser. 5-HT2A (percent inhibition of specific binding)
T4 construct: expressed in transfected cells; host or cells: CHO-K1 cells
Description: (§1) Compounds of the invention were incubated with 0.5 nM [^3H]Ketanserin for 60 minutes at 25° C. Non-specific binding was estimated in the presence of 1 μM Mianserin. Receptor proteins were filtered and washed, the filters were then counted to determine [^3H]Ketanserin specifically bound. […] Biochemical assay results are presented as the percent inhibition of specific binding in Table 6.

[5] = target: T5, human recombinant serotonin (5-Hydroxytryptamine) 5-HT2C receptor (Homo sapiens, UniProt P28335); assay: Serotonin 5-HT2C radioligand binding ([3H]Mesulergine); set-up: Inhibition of ligand binding, Ser. 5-HT2C: concentration or dose not given beside the values; conditions: for Inhibition of ligand binding, Ser. 5-HT2C: percent inhibition of specific binding; for inhibition at 1 µM: compounds screened at 1 μM, read-out: Inhibition of ligand binding, Ser. 5-HT2C (percent inhibition of specific binding)
T5 construct: expressed in transfected cells; host or cells: CHO-K1 cells
T5 sequence (P28335 33-458): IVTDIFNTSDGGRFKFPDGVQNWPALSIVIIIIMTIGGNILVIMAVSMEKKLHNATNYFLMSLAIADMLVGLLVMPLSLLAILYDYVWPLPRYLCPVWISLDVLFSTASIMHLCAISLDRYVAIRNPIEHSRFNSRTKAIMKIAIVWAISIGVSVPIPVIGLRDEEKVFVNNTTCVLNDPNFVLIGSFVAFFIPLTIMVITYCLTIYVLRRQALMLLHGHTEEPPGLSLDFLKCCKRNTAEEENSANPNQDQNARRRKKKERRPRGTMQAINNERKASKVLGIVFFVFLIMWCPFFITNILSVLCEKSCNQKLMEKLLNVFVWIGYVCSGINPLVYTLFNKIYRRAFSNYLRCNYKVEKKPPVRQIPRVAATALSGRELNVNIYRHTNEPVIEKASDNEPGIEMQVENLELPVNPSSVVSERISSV
Description: as §1, with “1” for “0.5”, “[^3H]Mesulergine” for “[^3H]Ketanserin”

[6] = target: T6, human recombinant serotonin (5-Hydroxytryptamine) 5-HT6 receptor (Homo sapiens, UniProt P50406); assay: Serotonin 5-HT6 radioligand binding ([3H]LSD); set-up: Inhibition of ligand binding, Ser. 5-HT6: concentration or dose not given beside the values; conditions: for Inhibition of ligand binding, Ser. 5-HT6: percent inhibition of specific binding; for inhibition at 1 µM: compounds screened at 1 μM, read-out: Inhibition of ligand binding, Ser. 5-HT6 (percent inhibition of specific binding)
T6 construct: expressed in transfected cells; host or cells: human HeLa cells
Source text: Receptor proteins were filtered and washed, the filters were then counted to determine [3H]LSD specifically bound. […] Biochemical assay results are presented as the percent inhibition of specific binding in Table 6.

[7] = percent inhibition of specific binding, screened at 1 μM, read-out: Inhibition of ligand binding, Hist. H1
[8] = compounds screened at 1 μM, read-out: Inhibition of ligand binding, Hist. H1 (percent inhibition of specific binding)
[9] = 1 μM compound, […] [3H]Pyrilamine, read-out: Histamine Binding H1, percent inhibition of specific binding

T3 sequence (P14416 whole entry): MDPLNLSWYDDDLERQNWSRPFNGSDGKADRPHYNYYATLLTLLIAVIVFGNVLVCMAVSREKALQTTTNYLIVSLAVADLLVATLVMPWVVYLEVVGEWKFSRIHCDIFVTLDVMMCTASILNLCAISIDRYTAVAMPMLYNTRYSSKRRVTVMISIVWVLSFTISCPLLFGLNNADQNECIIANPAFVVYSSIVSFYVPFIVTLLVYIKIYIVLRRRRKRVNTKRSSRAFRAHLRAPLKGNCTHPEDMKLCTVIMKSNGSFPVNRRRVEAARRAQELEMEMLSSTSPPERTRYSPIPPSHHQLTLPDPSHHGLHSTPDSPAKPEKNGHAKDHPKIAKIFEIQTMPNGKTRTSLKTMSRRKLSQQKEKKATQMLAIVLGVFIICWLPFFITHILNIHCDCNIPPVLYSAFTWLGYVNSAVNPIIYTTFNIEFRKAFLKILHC
T1 sequence (P35367 whole entry): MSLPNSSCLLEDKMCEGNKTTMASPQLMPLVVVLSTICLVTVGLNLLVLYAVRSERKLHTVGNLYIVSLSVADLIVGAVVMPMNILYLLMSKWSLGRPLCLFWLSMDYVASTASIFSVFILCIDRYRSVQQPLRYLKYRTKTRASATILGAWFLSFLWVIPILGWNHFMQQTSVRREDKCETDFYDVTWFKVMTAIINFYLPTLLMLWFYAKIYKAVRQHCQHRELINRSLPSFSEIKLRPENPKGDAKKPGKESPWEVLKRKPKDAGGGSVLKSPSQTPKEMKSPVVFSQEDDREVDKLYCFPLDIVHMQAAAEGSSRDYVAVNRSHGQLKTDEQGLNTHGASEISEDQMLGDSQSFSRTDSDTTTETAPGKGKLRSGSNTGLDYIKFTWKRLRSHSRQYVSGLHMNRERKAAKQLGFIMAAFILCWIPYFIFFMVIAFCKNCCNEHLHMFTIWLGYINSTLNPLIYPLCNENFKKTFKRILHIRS
T6 sequence (P50406 whole entry): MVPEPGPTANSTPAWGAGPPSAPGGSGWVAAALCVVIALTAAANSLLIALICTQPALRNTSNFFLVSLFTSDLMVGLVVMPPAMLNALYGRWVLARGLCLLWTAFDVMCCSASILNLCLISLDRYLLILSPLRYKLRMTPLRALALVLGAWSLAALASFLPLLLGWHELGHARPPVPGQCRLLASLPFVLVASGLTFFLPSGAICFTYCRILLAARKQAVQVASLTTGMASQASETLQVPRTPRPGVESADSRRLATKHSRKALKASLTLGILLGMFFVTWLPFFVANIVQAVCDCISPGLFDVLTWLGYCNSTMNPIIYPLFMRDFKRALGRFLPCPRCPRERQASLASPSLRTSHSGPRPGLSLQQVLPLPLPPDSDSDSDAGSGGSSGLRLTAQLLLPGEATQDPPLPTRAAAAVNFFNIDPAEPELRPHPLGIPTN
T4 sequence (P28223 whole entry): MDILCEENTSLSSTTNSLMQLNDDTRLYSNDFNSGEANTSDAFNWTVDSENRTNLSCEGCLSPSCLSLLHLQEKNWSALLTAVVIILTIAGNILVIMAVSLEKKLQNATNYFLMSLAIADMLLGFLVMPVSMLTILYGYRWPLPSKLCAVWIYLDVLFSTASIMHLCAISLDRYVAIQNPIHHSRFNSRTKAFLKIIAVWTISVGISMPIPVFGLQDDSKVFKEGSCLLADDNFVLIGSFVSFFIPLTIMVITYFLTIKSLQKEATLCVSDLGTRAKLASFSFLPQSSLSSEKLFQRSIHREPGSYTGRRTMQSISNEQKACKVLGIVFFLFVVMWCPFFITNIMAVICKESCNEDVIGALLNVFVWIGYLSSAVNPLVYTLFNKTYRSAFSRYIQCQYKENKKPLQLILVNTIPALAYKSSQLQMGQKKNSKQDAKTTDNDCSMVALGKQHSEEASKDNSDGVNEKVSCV

| Structure (SMILES) | inhibition at 1 µM [1, 7] [%] | Inhibition of ligand binding, Adren. alpha2B [2] [%] | Inhibition of ligand binding, Dop. D2L [3] [%] | Inhibition of ligand binding, Ser. 5-HT2A [4] [%] | Inhibition of ligand binding, Ser. 5-HT2C [5] [%] | Inhibition of ligand binding, Ser. 5-HT6 [6] [%] | inhibition at 1 µM [1, 8] [%] | inhibition at 1 µM [2] [%] | inhibition at 1 µM [3] [%] | inhibition at 1 µM [4] [%] | inhibition at 1 µM [5] [%] | inhibition at 1 µM [6] [%] | inhibition at 1 µM [1, 9] [%] | inhibition at 0.01 µM ([1]; 10 nM (0.01 μM) compound, […] [3H]Pyrilamine, read-out: Histamine Binding H1, percent inhibition of specific binding) [%] | inhibition at 0.1 µM ([1]; 0.1 μM compound, […] [3H]Pyrilamine, read-out: Histamine Binding H1, percent inhibition of specific binding) [%] |
| --- | --- | --- | --- | --- | --- | --- | --- | --- | --- | --- | --- | --- | --- | --- | --- |
| Cc1ccc2c(c1)c1c(n2CCc2cnc(C)nc2)CCN(C)C1 [Compound 323, 2,3,4,5-tetrahydro-2,8-dimethyl-5-(2-(2-methylpyrimidin-5-yl)ethyl)-1H-pyrido[4,3-b]indole] | 93 | 62 | 8 | 16 | 20 | 69 | – | – | – | – | – | – | – | – | – |
| Cc1ccc(CCn2c3c(c4cc(I)ccc42)CN(C)CC3)cn1 [Compound 485, 2,3,4,5-tetrahydro-8-iodo-2-methyl-5-(2-(6-methylpyridin-3-yl)ethyl)-1H-pyrido[4,3-b]indole] | – | – | – | – | – | – | 105 | 98 | 43 | 69 | 91 | 94 | – | – | – |
| CCOC(=O)N1CCc2c(c3cc(-c4cccnc4)ccc3n2CCc2ccc(C)nc2)C1 [Compound 19, ethyl 3,4-dihydro-5-(2-(6-methylpyridin-3-yl)ethyl)-8-(pyridin-3-yl)-1H-pyrido[4,3-b]indole-2(5H)-carboxylate] | -3 | −8 | −5 | 2 | −17 | −5 | – | – | – | – | – | – | -3 | – | – |
| Cc1ccc2c(c1)c1c(n2CCc2cnc(C)cn2)CCN(C)C1 [Compound 322, 2,8-dimethyl-5-(2-(5-methylpyrazin-2-yl)ethyl)-2,3,4,5-tetrahydro-1H-pyrido[4,3-b]indole] | 89 | 115 | 5 | 64 | 69 | 75 | – | – | – | – | – | – | – | – | – |
| COc1ccc(CCn2c3c(c4cc(Cl)ccc42)CN(C)CC3)cc1F [Compound 337, 5-(3-fluoro-4-methoxyphenethyl)-8-chloro-2,3,4,5-tetrahydro-2-methyl-1H-pyrido[4,3-b]indole] | 99 | 117 | 81 | 101 | 94 | 104 | – | – | – | – | – | – | – | – | – |
| Cc1ccc2c(c1)c1c(n2CCc2nc(-c3ccccc3)cs2)CCN(C)C1 [Compound C1-5] | – | – | – | – | – | – | 100 | 113 | 36 | 97 | 93 | 101 | – | – | – |
| Cc1ccc2c(c1)c1c(n2CCc2ccc(OC(C)(C)C)cc2)CCN(C)C1 [Compound 335, 5-(4-tert-butoxyphenethyl)-2,3,4,5-tetrahydro-2,8-dimethyl-1H-pyrido[4,3-b]indole] | 96 | 104 | 44 | 97 | 72 | 9 | – | – | – | – | – | – | – | – | – |
| CCOc1ccc(CCn2c3c(c4cc(C)ccc42)CN(C)CC3)cc1 [Compound 334, 5-[2-(4-Ethoxy-phenyl)-ethyl]-2,8-dimethyl-2,3,4,5-tetrahydro-1H-pyrido[4,3-b]indole] | 99 | 111 | 76 | 101 | 97 | 101 | – | – | – | – | – | – | – | – | – |
| CCOC(=O)N1CCc2c(c3cc(C)ccc3n2CCc2ccccc2)C1 [Compound 24, ethyl 3,4-dihydro-8-methyl-5-phenethyl-1H-pyrido[4,3-b]indole-2(5H)-carboxylate] | -4 | −1 | 3 | −2 | 1 | −4 | – | – | – | – | – | – | -4 | – | – |
| COc1ccc2c(c1)c1c(n2CCc2nc(-c3ccccc3)cs2)CCN(C)C1 [Compound C1-6] | – | – | – | – | – | – | 104 | 110 | 29 | 84 | 90 | 84 | – | – | – |
| CN1CCc2c(c3cc(Cl)ccc3n2CC(=O)N2CC[S+]([O-])CC2)C1 [Compound 296, 2-(8-Chloro-2-methyl-1,2,3,4-tetrahydro-pyrido[4,3-b]indol-5-yl)-1-(1-oxo-1l4-thiomorpholin-4-yl)-ethanone] | 36 | −8 | 3 | 11 | 2 | 3 | – | – | – | – | – | – | – | – | – |
| CN1CCc2c(c3cc(Cl)ccc3n2CCC(=O)N2CCCCC2)C1 [Compound 326, 3-(8-chloro-1,2,3,4-tetrahydro-2-methylpyrido[4,3-b]indol-5-yl)-1-(piperidin-1-yl)propan-1-one] | 47 | 52 | −5 | 27 | 31 | 26 | – | – | – | – | – | – | – | – | – |
| Cc1ccc2c(c1)c1c(n2CCc2ccc(F)cc2)CCN(C)C1 [Compound 33, 5-(4-fluorophenethyl)-2,3,4,5-tetrahydro-2,8-dimethyl-1H-pyrido[4,3-b]indole] | 98 | 100 | 88 | 97 | 95 | 100 | – | – | – | – | – | – | 98 | 46 | 89 |
